Assays:
Bletilla striata = assay: Growth and bulb formation of Bletilla striata seedlings in tissue culture; assay type: in vivo
Procedure: Seedling plants of Bletilla striata obtained by sterile sowing were used in an experiment.
As for the Bletilla striata, by using ½ strength MS medium supplemented with D-psicose, D-allose, D-glucose or D-frucose at a concentration of from 0.005% to 0.05% (w/v), the seedling plants were aseptically transplanted on Feb. 27, 2003, and then, cultivation was carried out under the same conditions as those of the strawberry in Example 3. Then, on Jun. 30, 2003, a survey was carried out with regard to the growth conditions of aerial part and underground part, the number of buds, the ratio of bulb formation, the bulb size and the like.

Cymbidium = assay: Growth of Cymbidium flask seedlings in tissue culture; assay type: in vivo; details: 0.005% in MS medium; for Number of lateral buds: non 0; for Aerial part weight: non 2.1; for Underground part weight: non 3.8; for Number of roots: non 10.8
Text: (§1) Flask seedlings of Phalaenopsis orchid and Cymbidium obtained by tissue culture were used in an experiment.
As for Cymbidium, in the same manner as the above Phalaenopsis orchid, MS medium supplemented with D-psicose, D-glucose, D-fructose or D-allose was used, and the flask seedlings were aseptically transplanted on Oct. 4, 2004. At this time, 4 or 5 leaves and 2 roots were left and the rest of them were cut off using a knife. As for the number of seedlings, 4 seedlings were used for 1 test plot, and glass bottles with a capacity of 900 ml and having a hole with a diameter of about 1 cm for preventing dew condensation made in the upper region was used as culture containers. The cultivation was carried out in a culture chamber at 25° C. and 5,000 Lux (12-hour day length) Then, on Feb. 1, 2005, a survey was carried out with regard to the growth conditions of aerial part and underground part, the number of roots and the number of lateral buds. The results are shown in Table 9 (effect of addition of rare sugar on the growth of seedlings of Cymbidium).

[1] = test system: Pythium ultimum IFO 32426 strain; assay: Oospore formation of Pythium ultimum in sugar solution; assay type: cell-based; details: 0.05% (w/v) sugar solution, 23° C., 4 days
Procedure: With regard to Pythium ultimum that causes damping-off of spinach and the like, an effect of a rare sugar on oospore formation was examined.
First, as the Pythium ultimum, IFO 32426 strain was used, and static culture thereof was carried out with 200 ml of V8 medium at 23° C. for 1 week. The resulting mycelial mat was well washed with sterile water and divided into 16 equal parts with forceps. This mycerial body was disentangled uniformly to form a small piece and immersed in 20 ml of a sugar solution at a concentration of 0.05% (w/v) and let stand at 23° C. for 4 days. […] Further, the same experiment was carried out using Pythium zingiberum IFO 30817 strain.

[2] = test system: rice plant (variety: “Hinohikari”); assay: Foliar spraying of sugar on pot-grown rice; assay type: in vivo
Procedure: After seeds of a rice plant (variety: “Hinohikari”) were put in a nylon net and subjected to sterilization and a germination induction treatment in a growth chamber at 30° C. for 2 days while they were soaked in 0.1% (w/v) Benlate (Hokko Chemical Industry Co., Ltd.) in accordance with a common method, they were sown in a nursery tray filled with “Kumiai Ryujou Baido SD” (Kureha Chemical Industry Co., Ltd.) and raised in a phytotron (day temperature: 25° C. and night temperature: 18° C.) for about 2 weeks. Then, Wagner pots with a size of 1/5,000a were filled with “Kumiai Ryujou Baido SD” (Kureha Chemical Industry Co., Ltd.) and the raised rice seedlings were transplanted for permanent planting to the pots and the cultivation was started on Jul. 2, 2003 in the open air under the condition that the soil was covered with water in the pots. From Jul. 16, 2003, when the seedlings were confirmed to take root, water, a 0.02% (w/v) sugar solution, a 0.1% (w/v) sugar solution or a 0.5% (w/v) sugar solution was sprayed onto the whole plant on a three times weekly basis. As for the types of sugars, D-glucose, D-fructose and D-psicose were used and three pots were cultivated for each test plot. The cultivation was continued in such a manner that the water in pots was not dried up and after 5 g of Magamp K medium (HYPONeX JAPAN CORP., Ltd.) per pot was added as additional fertilization on Aug. 29, 2003, and the harvest and survey were carried out on Sep. 22, 2003. The survey items were plant length, number of tillers, leaf weight, husk weight, underground part weight and the like.

Phalaenopsis orchid = assay: Growth of Phalaenopsis orchid flask seedlings in tissue culture; assay type: in vivo; details: 0.005% in MS medium
Procedure: as §1
As for Phalaenopsis orchid, MS medium supplemented with D-psicose, D-glucose or D-fructose at a concentration of 0.005% (w/v) was used, and the flask seedlings were aseptically transplanted on Sep. 6, 2004. As for the number of seedlings, 4 seedlings were used for 1 test plot, and glass bottles with a capacity of 500 ml and having a hole with a diameter of about 1 cm for preventing dew condensation made in the upper region was used as culture containers. The cultivation was carried out in a culture chamber at 25° C. and 5,000 Lux (12-hour day length) Then, on Jan. 24, 2005, a survey was carried out with regard to the growth conditions of aerial part and underground part and the number of roots. The results are shown in Table 8 (effect of addition of D-psicose on the growth of seedlings of Phalaenopsis orchid).

**Q.** Which results are given for `O=C[C@H](O)[C@H](O)[C@H](O)[C@H](O)CO` [D-allose]?
**A.** growth when the concentration added to the medium was increased (Bletilla striata; increased (high) concentration in medium): the growth thereof was delayed; Aerial part weight (Bletilla striata; sugar 0.005% in medium): 0.19 g; Bulb size (Bletilla striata; sugar 0.005% in medium): 4.5 mm; Maximum plant length (Bletilla striata; sugar 0.005% in medium): 7.6 cm; Maximum root length (Bletilla striata; sugar 0.005% in medium): 4.2 cm; Number of buds (Bletilla striata; sugar 0.005% in medium): 3.4; Number of leaves (Bletilla striata; sugar 0.005% in medium): 4.2; Ratio of bulb formation (Bletilla striata; sugar 0.005% in medium): 84%; Underground part weight (Bletilla striata; sugar 0.005% in medium): 0.10 g; Aerial part weight (Bletilla striata; sugar 0.02% in medium): 0.19 g; Bulb size (Bletilla striata; sugar 0.02% in medium): 4.2 mm; Maximum plant length (Bletilla striata; sugar 0.02% in medium): 7.5 cm; Maximum root length (Bletilla striata; sugar 0.02% in medium): 4.1 cm; Number of buds (Bletilla striata; sugar 0.02% in medium): 3.6; Number of leaves (Bletilla striata; sugar 0.02% in medium): 3.9; Ratio of bulb formation (Bletilla striata; sugar 0.02% in medium): 85%; Underground part weight (Bletilla striata; sugar 0.02% in medium): 0.12 g; Aerial part weight (Bletilla striata; sugar 0.05% in medium): 0.25 g; Bulb size (Bletilla striata; sugar 0.05% in medium): 4.9 mm; Maximum plant length (Bletilla striata; sugar 0.05% in medium): 7.7 cm; Maximum root length (Bletilla striata; sugar 0.05% in medium): 4.2 cm; Number of buds (Bletilla striata; sugar 0.05% in medium): 2.7; Number of leaves (Bletilla striata; sugar 0.05% in medium): 4.3; Ratio of bulb formation (Bletilla striata; sugar 0.05% in medium): 85%; Underground part weight (Bletilla striata; sugar 0.05% in medium): 0.12 g; Number of lateral buds (Cymbidium): 3.8 buds; Aerial part weight (Cymbidium): 2.7 g; Underground part weight (Cymbidium): 4.0 g; Number of roots (Cymbidium): 12.8 roots; oospore formation [1]: not observed at all

**Q.** How did the Aerial part weight (Bletilla striata; sugar 0.005% in medium) turn out when `O=C(CO)[C@@H](O)[C@H](O)[C@H](O)CO` [D-fructose, reference compound] was run?
**A.** 0.16 g

**Q.** And the Bulb size (Bletilla striata; sugar 0.005% in medium)?
**A.** 5.2 mm

**Q.** And the Maximum plant length (Bletilla striata; sugar 0.005% in medium)?
**A.** 6.5 cm

**Q.** What about the Maximum root length (Bletilla striata; sugar 0.005% in medium) of the same compound?
**A.** 4.6 cm

**Q.** What about the Number of buds (Bletilla striata; sugar 0.005% in medium) of the same compound?
**A.** 3.7

**Q.** And the Number of leaves (Bletilla striata; sugar 0.005% in medium)?
**A.** 3.5

**Q.** And the “Ratio of bulb formation” value (Bletilla striata; sugar 0.005% in medium)?
**A.** 44%

**Q.** And the Underground part weight (Bletilla striata; sugar 0.005% in medium)?
**A.** 0.15 g

**Q.** What about the Aerial part weight (Bletilla striata; sugar 0.02% in medium) of the same compound?
**A.** 0.19 g

**Q.** What about the Bulb size (Bletilla striata; sugar 0.02% in medium) of the same compound?
**A.** 4.5 mm

**Q.** What about the Maximum plant length (Bletilla striata; sugar 0.02% in medium) of the same compound?
**A.** 6.6 cm

**Q.** And the Maximum root length (Bletilla striata; sugar 0.02% in medium)?
**A.** 5.1 cm

**Q.** What about the Number of buds (Bletilla striata; sugar 0.02% in medium) of the same compound?
**A.** 3.3

**Q.** What about the Number of leaves (Bletilla striata; sugar 0.02% in medium) of the same compound?
**A.** 4.6

**Q.** What about the “Ratio of bulb formation” value (Bletilla striata; sugar 0.02% in medium) of the same compound?
**A.** 67%

**Q.** And the Underground part weight (Bletilla striata; sugar 0.02% in medium)?
**A.** 0.14 g

**Q.** What about the Aerial part weight (Bletilla striata; sugar 0.05% in medium) of the same compound?
**A.** 0.19 g

**Q.** What about the Bulb size (Bletilla striata; sugar 0.05% in medium) of the same compound?
**A.** 4.7 mm

**Q.** And the Maximum plant length (Bletilla striata; sugar 0.05% in medium)?
**A.** 7.3 cm

**Q.** What about the Maximum root length (Bletilla striata; sugar 0.05% in medium) of the same compound?
**A.** 4.1 cm

**Q.** And the Number of buds (Bletilla striata; sugar 0.05% in medium)?
**A.** 3.3

**Q.** What about the Number of leaves (Bletilla striata; sugar 0.05% in medium) of the same compound?
**A.** 4.0

**Q.** And the “Ratio of bulb formation” value (Bletilla striata; sugar 0.05% in medium)?
**A.** 69%

**Q.** And the Underground part weight (Bletilla striata; sugar 0.05% in medium)?
**A.** 0.10 g

**Q.** What about the Dry husk weight ([2]; 0.02% sugar solution sprayed) of the same compound?
**A.** 16.8 g

**Q.** And the Dry leaf weight ([2]; 0.02% sugar solution sprayed)?
**A.** 43.3 g

**Q.** And the Number of tillers ([2]; 0.02% sugar solution sprayed)?
**A.** 29.3

**Q.** What about the Plant length ([2]; 0.02% sugar solution sprayed) of the same compound?
**A.** 85.7 cm

**Q.** What about the Dry husk weight ([2]; 0.10% sugar solution sprayed) of the same compound?
**A.** 16.1 g

**Q.** What about the Dry leaf weight ([2]; 0.10% sugar solution sprayed) of the same compound?
**A.** 41.0 g

**Q.** And the Number of tillers ([2]; 0.10% sugar solution sprayed)?
**A.** 29.3

**Q.** And the Plant length ([2]; 0.10% sugar solution sprayed)?
**A.** 84.3 cm

**Q.** And the Dry husk weight ([2]; 0.50% sugar solution sprayed)?
**A.** 17.2 g

**Q.** What about the Dry leaf weight ([2]; 0.50% sugar solution sprayed) of the same compound?
**A.** 36.4 g

**Q.** What about the Number of tillers ([2]; 0.50% sugar solution sprayed) of the same compound?
**A.** 27.0

**Q.** And the Plant length ([2]; 0.50% sugar solution sprayed)?
**A.** 85.7 cm

**Q.** What about the Underground part weight (Phalaenopsis orchid; non 2.9) of the same compound?
**A.** 4.0 g

**Q.** And the Aerial part weight (Phalaenopsis orchid; non 4.7)?
**A.** 5.7 g

**Q.** What about the Number of roots (Phalaenopsis orchid; non 12.5) of the same compound?
**A.** 14.8 roots

**Q.** What about the “Number of lateral buds” value (Cymbidium) of the same compound?
**A.** 0 buds

**Q.** And the Aerial part weight (Cymbidium)?
**A.** 2.0 g

**Q.** What about the Underground part weight (Cymbidium) of the same compound?
**A.** 3.8 g

**Q.** What about the Number of roots (Cymbidium) of the same compound?
**A.** 10.0 roots

**Q.** What about the oospore formation [1] of the same compound?
**A.** no effect

Source: patent US8017828B2, “Utilization of rare sugars in plant or microorganism” (Shikoku Research Institute Incorporated, priority 2004, dated 2011)
